{
  "source": "a melting point compilation (Tetko et al.)",
  "data": [
    {"units": {"melting point": "°C"}, "values": [
      {"smiles": "NNc1ccc(S(N)(=O)=O)cn1", "melting point": "190 to 192"},
      {"smiles": "Cc1nc2cc(NC(=O)CCC(=O)O)ccc2o1", "melting point": "184 to 186"},
      {"smiles": "COCCOc1cc(C(=O)O)nc2ccccc12", "melting point": "179 to 181"},
      {"smiles": "COc1ccc2sc(C(=O)O)c(C)c2c1", "melting point": "254 to 256"},
      {"smiles": "CCN(CC)S(=O)(=O)c1ccc(N2CCCCC2)c(N)c1", "melting point": "75 to 77"},
      {"smiles": "CC1(C)NC(=O)c2ccccc2O1", "melting point": "131 to 133"},
      {"smiles": "O=C(O)CCn1cc([N+](=O)[O-])cn1", "melting point": "143 to 145"},
      {"smiles": "Fc1cc(Br)cc2c(Cl)ccnc12", "melting point": "149 to 151"},
      {"smiles": "Brc1ccc(NCc2ccccn2)cc1", "melting point": "76 to 78"},
      {"smiles": "O=C(O)c1ccc2nnn(O)c2c1", "melting point": "229 to 231"},
      {"smiles": "CCN(CC)S(=O)(=O)c1ccc(NN)nc1", "melting point": "134 to 136"},
      {"smiles": "O=C(N/N=C/c1c(O)ccc2ccccc12)c1ccncc1", "melting point": "266 to 268"},
      {"smiles": "COc1ccc(C(=O)Nc2ccc(C(=O)O)cc2)cc1OC", "melting point": "259 to 261"},
      {"smiles": "Nc1ccc2nc(CN3CCOCC3)[nH]c2c1", "melting point": "160 to 162"},
      {"smiles": "CNS(=O)(=O)c1ccc(S(N)(=O)=O)cc1", "melting point": "154 to 156"},
      {"smiles": "NC1(c2ccc(Cl)cc2)CCOCC1", "melting point": "50 to 52"},
      {"smiles": "Cc1ccc(S(=O)(=O)C2(C(=O)O)CCCC2)cc1", "melting point": "131 to 133"},
      {"smiles": "CC(C)(C)OC(=O)NC(CC#N)c1ccccc1", "note": "(configuration not stated)", "melting point": "104 to 106"},
      {"smiles": "CC(C)CNC(=O)c1cc(Cl)ccc1N", "melting point": "137 to 139"},
      {"smiles": "O=C(O)/C=C/c1ccc2c(c1)CCO2", "melting point": "175 to 177"},
      {"smiles": "Nc1ccccc1NC(=O)c1ccc2ccccc2n1", "melting point": "151 to 153"},
      {"smiles": "O=C1C(Br)CCCN1c1ccc(OC(F)F)cc1", "note": "(configuration not stated)", "melting point": "72 to 74"},
      {"smiles": "NC1CCCCC1CO", "note": "(configuration not stated)", "melting point": "132 to 135"},
      {"smiles": "Cc1noc(C(C)C)c1C(=O)O", "melting point": "147 to 151"},
      {"smiles": "N#Cc1cn(-c2ccc([N+](=O)[O-])cc2)nc1N", "melting point": "278 to 280"},
      {"smiles": "CCOc1ccc(NC(=O)CC#N)cc1", "melting point": "95 to 100"},
      {"smiles": "CCC(C)n1nc(C(=O)O)cc1C", "note": "(configuration not stated)", "melting point": "103 to 105"},
      {"smiles": "Nc1cc(Cl)cc2[nH]cnc12", "melting point": "89 to 91"},
      {"smiles": "CCOC(=O)c1csc(NC2CC2)n1", "melting point": "89 to 91"},
      {"smiles": "COc1cccc(C2CC(=O)CC(=O)C2)c1", "melting point": "131 to 133"},
      {"smiles": "Cc1nn(C)c(Cl)c1Cn1cc(Br)cn1", "melting point": "52 to 54"},
      {"smiles": "Cc1ccc(Oc2cccc(N(C)C)c2)c(N)c1", "melting point": "64 to 66"},
      {"smiles": "CC(CO)N1Cc2cccc(N)c2C1", "note": "(configuration not stated)", "melting point": "129 to 131"},
      {"smiles": "COC(=O)c1cccc(CS(=O)(=O)Cl)c1", "melting point": "102 to 104"},
      {"smiles": "O=C(O)c1ccnc(Cl)c1F", "melting point": "194 to 196"},
      {"smiles": "Cc1ccc(-n2cc(C(=O)O)nn2)cc1", "melting point": "160 to 162"},
      {"smiles": "CCCNC(=O)CC#N", "melting point": "53 to 55"},
      {"smiles": "CN1CC(N)C(=O)N1", "note": "(configuration not stated)", "melting point": "55 to 57"},
      {"smiles": "Cc1c(N)cccc1S(=O)(=O)NC(C)(C)C", "melting point": "185 to 187"},
      {"smiles": "CCN(CC)CC(=O)Nc1ccc(C(F)(F)F)cc1N", "melting point": "94 to 96"},
      {"smiles": "c1cnc2c(c1)CCN2", "melting point": "79 to 81"},
      {"smiles": "O=C(CCl)N(Cc1ccc(Cl)cc1)C12CC3CC(CC(C3)C1)C2", "melting point": "112 to 114"},
      {"smiles": "CC(C)Oc1ccc(S(=O)(=O)N2CCCCC2)cc1NC(=O)CCl", "melting point": "270 to 272"},
      {"smiles": "CCOC(=O)c1cnn(CCC#N)c1", "melting point": "87 to 89"},
      {"smiles": "Cc1ccn2c(=O)c(C(=O)O)cnc2c1", "melting point": "241 to 243"},
      {"smiles": "NCc1nc(-c2cccs2)no1", "melting point": "141 to 143"},
      {"smiles": "Cc1ccc(C(=O)N(C)C)cc1O", "melting point": "153 to 155"},
      {"smiles": "O=C1COc2ncccc2N1", "melting point": "254 to 256"},
      {"smiles": "CCn1c(C)cc(C=O)c1C", "melting point": "87 to 89"},
      {"smiles": "O=S(=O)(Cl)c1cnc(Cl)nc1Cl", "melting point": "96 to 98"},
      {"smiles": "O=C(O)CSc1nc2ccccc2o1", "melting point": "158 to 160"},
      {"smiles": "Cc1ccc(-c2ccncc2)cc1N", "melting point": "202 to 204"},
      {"smiles": "N#Cc1ccc(CS(N)(=O)=O)cc1", "melting point": "154 to 156"},
      {"smiles": "CC(=O)NCCc1ccc(C(=O)C(C)Cl)cc1", "note": "(configuration not stated)", "melting point": "85 to 89"},
      {"smiles": "Cc1c(Cl)ccc(C(=O)O)c1N", "melting point": "208 to 210"},
      {"smiles": "CCCCOc1ccc(C(N)=O)cc1", "melting point": "162 to 164"},
      {"smiles": "CC(C)n1nnnc1S", "melting point": "89 to 91"},
      {"smiles": "CC(C)c1ccc(-c2nn(-c3ccccc3)cc2C(=O)O)cc1", "melting point": "222 to 224"},
      {"smiles": "CC(=O)N1CCCCC1C(=O)O", "note": "(configuration not stated)", "melting point": "137 to 139"},
      {"smiles": "CC1NC(=O)c2ccccc2N(C)C1=O", "note": "(configuration not stated)", "melting point": "250 to 252"},
      {"smiles": "O=C(O)C1CCN(S(=O)(=O)c2ccc(F)c(Cl)c2)CC1", "melting point": "190 to 192"},
      {"smiles": "O=CN1CC(=O)NC(=O)C1", "melting point": "213 to 215"},
      {"smiles": "Cc1cc(S(=O)(=O)Cl)ccc1F", "melting point": "36 to 38"},
      {"smiles": "CCOC(=O)Cc1c(C)nc(O)nc1C", "melting point": "135 to 137"},
      {"smiles": "COC(=O)C(=O)CC(=O)c1cccnc1", "melting point": "113 to 115"},
      {"smiles": "NS(=O)(=O)c1cccc(-c2nnco2)c1", "melting point": "184 to 186"},
      {"smiles": "O=C(O)CCNS(=O)(=O)c1ccc([N+](=O)[O-])cc1", "melting point": "150 to 152"},
      {"smiles": "CC(C)(C)c1ccccc1S(=O)(=O)Cl", "melting point": "59 to 61"},
      {"smiles": "N#Cc1ccc(C(Cl)C(N)=O)cc1", "note": "(configuration not stated)", "melting point": "114 to 116"},
      {"smiles": "Cn1c(=O)[nH]c2cc(C(=O)O)ccc21", "melting point": "391 to 393"},
      {"smiles": "CC(O)Cc1ccc(Br)c(F)c1", "note": "(configuration not stated)", "melting point": "36 to 38"},
      {"smiles": "NC(=NO)c1ccc2c(c1)OCO2", "melting point": "164 to 166"}
    ]}
  ]
}
